Results reported in US20230407243A1, “GENETIC PLATFORM TO INVESTIGATE THE FUNCTIONS OF BACTERIAL DRUG EFFLUX PUMPS” (priority 2022, published 2023).
Read-outs that look alike come from different tables or passages of the source.

Tests used:
Format in all cases: cell-based, Escherichia coli
EKO-35 araC::mdtEF = assay: MIC susceptibility profiling, efflux platform; conditions: for Fold change of MICs: EKO-35 araC::mdtEF compared to EKO-35
Summary of the method: (§1)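 MIC derived from pre-incubation-corrected OD600 after 18 h growth at 37° C. (900 rpm) in MHB II. Inoculum was cells from 18 h LB culture adjusted to OD600 ~1.0 in PBS, then diluted 1/2000; compounds two-fold serially titrated in duplicate, DMSO as solvent control.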

EKO-35 araC::acrB = assay: MIC susceptibility profiling, efflux platform; conditions: for Fold change of MICs: EKO-35 araC::acrB compared to EKO-35
Summary of the method: as §1

EKO-35-Pore = assay: MIC susceptibility profiling, porinated strain; conditions: for Fold changes of MICs: EKO-35-Pore compared to EKO-35-Pore (reference); for Minimum inhibitory concentration (MIC), Pore EKO-35 / Minimum inhibitory concentration, EKO-35-Pore / MIC: technical duplicate; for MIC: Escherichia coli
Summary of the method: (§2)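 MIC values come from background-corrected OD600 readings (pre-incubation OD subtracted) after 18 h at 37 °C and 900 rpm in MHB II. Compounds were tested in duplicate as 2-fold dilutions. The inoculum came from 18 h LB cultures adjusted to OD600 ~1.0 and diluted 1/2000, and the pore-bearing strains were vancomycin-checked beforehand.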

wild-type (WT) K-12-Pore = assay: microbe, parasite or virus in culture; conditions: technical duplicate; for MIC: Escherichia coli
Summary of the method: as §2

ΔtolC-Pore = assay: microbe, parasite or virus in culture; conditions: for Minimum inhibitory concentration (MIC), Pore ΔtolC: Table 10, with pore; for Minimum inhibitory concentration (MIC), Pore ΔtolC / Minimum inhibitory concentration, ΔtolC-Pore: technical duplicate; for Minimum inhibitory concentration, ΔtolC-Pore: Table 14A, porinated; for MIC: Escherichia coli, 18 h, read-out: Minimum inhibitory concentration, ΔtolC-Pore
Summary of the method: as §2

[1] = system: wild-type E. coli K-12 str. BW25113; assay: microbe, parasite or virus in culture; conditions: technical duplicate; for MIC: Escherichia coli, BW25113
Summary of the method: as §1

E. coli EKO-35 = assay: microbe, parasite or virus in culture; conditions: for Fold change of MICs: EKO-35 compared to EKO-35 (reference); for Minimum inhibitory concentration (MIC), EKO-35 / Minimum Inhibitory Concentration, EKO-35 / MIC: technical duplicate; for susceptibility of EKO-35 to the compound: synthetic efflux substrates of FIG. 12; for MIC: Escherichia coli, EKO35
Summary of the method: as §1

E. coli ΔtolC = assay: microbe, parasite or virus in culture; conditions: for Minimum inhibitory concentration (MIC), ΔtolC: Table 10, without pore; for Minimum inhibitory concentration (MIC), ΔtolC / Minimum Inhibitory Concentration, ΔtolC: technical duplicate; for Minimum Inhibitory Concentration, ΔtolC: Table 13A, non-porinated; for MIC: Escherichia coli, 18 h, read-out: Minimum Inhibitory Concentration, ΔtolC
Summary of the method: as §1

[2] = Table 13A, non-porinated, technical duplicate
[3] = Table 10, with pore, read-out: Minimum inhibitory concentration (MIC), Pore K-12
[4] = Table 14A, porinated, read-out: Minimum inhibitory concentration, K-12 (WT)-Pore
[5] = Table 10, without pore, read-out: Minimum inhibitory concentration (MIC), K-12
[6] = Table 13A, non-porinated, read-out: Minimum Inhibitory Concentration, K-12
[7] = Table 10, without pore, read-out: Minimum inhibitory concentration (MIC), EKO-35
[8] = Table 13A, non-porinated, read-out: Minimum Inhibitory Concentration, EKO-35

Row | SMILES | Fold change of MICs (EKO-35 araC::mdtEF) | Minimum Inhibitory Concentration, EKO-35 araC::mdtEF (EKO-35 araC::mdtEF; [2]) | Fold change of MICs (EKO-35 araC::acrB) | Minimum Inhibitory Concentration, EKO-35 araC::acrB (EKO-35 araC::acrB; [2]) | Fold changes of MICs (EKO-35-Pore) | Minimum inhibitory concentration (MIC), Pore EKO-35 (EKO-35-Pore; Table 10, with pore) | Minimum inhibitory concentration, EKO-35-Pore (EKO-35-Pore; Table 14A, porinated) | Minimum inhibitory concentration (MIC), Pore K-12 (wild-type (WT) K-12-Pore; Table 10, with pore) | Minimum inhibitory concentration, K-12 (WT)-Pore (wild-type (WT) K-12-Pore; Table 14A, porinated) | Minimum inhibitory concentration (MIC), Pore ΔtolC (ΔtolC-Pore) | Minimum inhibitory concentration, ΔtolC-Pore (ΔtolC-Pore) | Minimum inhibitory concentration (MIC), K-12 ([1]; Table 10, without pore) | Minimum Inhibitory Concentration, K-12 ([1]; Table 13A, non-porinated) | Fold change of MICs (E. coli EKO-35) | Minimum inhibitory concentration (MIC), EKO-35 (E. coli EKO-35; Table 10, without pore) | Minimum Inhibitory Concentration, EKO-35 (E. coli EKO-35; Table 13A, non-porinated) | susceptibility of EKO-35 to the compound (E. coli EKO-35) | Minimum inhibitory concentration (MIC), ΔtolC (E. coli ΔtolC) | Minimum Inhibitory Concentration, ΔtolC (E. coli ΔtolC) | MIC (wild-type (WT) K-12-Pore; [3]) | also measured
1 | Nc1ccccc1SCc1nc(-c2ccc(Cl)cc2)no1 [compound 16] | 16 fold | 160 µg/mL | 32 fold | 320 µg/mL | 1 fold | 5 µg/mL | 5 µg/mL | 160 µg/mL | 160 µg/mL | 5 µg/mL | 5 µg/mL | 320 µg/mL | 320 µg/mL | 1 fold | 10 µg/mL | 10 µg/mL | susceptible | 10 µg/mL | 10 µg/mL | – | –
2 | CCCCCCCCCCCCOS(=O)(=O)[O-].[Na+] [SDS, sodium dodecyl sulphate] | 32 fold | – | 32 fold | – | 1 fold | – | – | – | – | 15.625 µg/mL | – | – | – | 1 fold | – | – | – | 15.625 µg/mL | – | 1000 µg/mL | MIC (EKO-35-Pore; Table 10, with pore, read-out: Minimum inhibitory concentration (MIC), Pore EKO-35): 31.2 µg/mL; MIC (EKO-35-Pore; Table 14A, porinated, read-out: Minimum inhibitory concentration, EKO-35-Pore): 31.2 µg/mL; MIC (wild-type (WT) K-12-Pore; [4]): 1000 µg/mL; MIC (ΔtolC-Pore): 15.6 µg/mL; MIC [1, 5]: 1000 µg/mL; MIC [1, 6]: 1000 µg/mL; MIC (E. coli EKO-35; [7]): 31.2 µg/mL; MIC (E. coli EKO-35; [8]): 31.2 µg/mL; MIC (E. coli ΔtolC): 15.6 µg/mL
3 | CN[C@@H]1[C@H](O)[C@H](NC)[C@H]2O[C@@]3(O)C(=O)C[C@@H](C)O[C@H]3O[C@@H]2[C@H]1O [Spectinomycin] | 1 fold | – | 1 fold | – | 1 fold | – | – | – | – | 6.25 µg/mL | – | – | – | 1 fold | – | – | – | 6.25 µg/mL | – | 12.5 µg/mL | MIC (EKO-35 araC::mdtEF; Escherichia coli, Table 13A, non-porinated, technical duplicate, read-out: Minimum Inhibitory Concentration, EKO-35 araC::mdtEF): 25 µg/mL; MIC (EKO-35 araC::acrB; Escherichia coli, Table 13A, non-porinated, technical duplicate, read-out: Minimum Inhibitory Concentration, EKO-35 araC::acrB): 25 µg/mL; MIC (wild-type (WT) K-12-Pore; [4]): 12.5 µg/mL; MIC (ΔtolC-Pore): 6.25 µg/mL; MIC [1, 5]: 25 µg/mL; MIC [1, 6]: 25 µg/mL; MIC (E. coli EKO-35; [7]): 25 µg/mL; MIC (E. coli EKO-35; [8]): 25 µg/mL; MIC (E. coli ΔtolC): 6.25 µg/mL
4 | O=C(NC(=O)N1CCc2c([nH]c3ccccc23)C1C(F)(F)F)c1ccccc1 (stereo not shown) [compound 13] | 8 fold | 320 µg/mL | 8 fold | 320 µg/mL | 1 fold | 5 µg/mL | 5 µg/mL | 320 µg/mL | 320 µg/mL | 1.25 µg/mL | 1.25 µg/mL | 320 µg/mL | 320 µg/mL | 1 fold | 40 µg/mL | 40 µg/mL | susceptible | 1.25 µg/mL | 1.25 µg/mL | – | –
